# Assay results: US9233127B2, “Compositions and methods for CXCR4 signaling and umbilical cord blood stem cell engraftment” (University of Virginia Patent Foundation, priority 2012, dated 2016)
# “Also recorded” adds a separate entry of the source.
# Experiments:
# [1] = tested on: human BM- and UCB-derived CD34+ cells; test: Homing of primed human CD34+ cells into BM of lethally irradiated NOD/SCID mice; assay type: in vivo
# From the text: FIG. 16A-B—Panel A: C3a primes homing of murine CFU-GM and CFU-S into BM of lethally irradiated mice. Murine BM-derived Sca-1^+ cells (10^5/mouse) were transplanted into lethally irradiated syngeneic mice. At 16 hrs after transplant, cells were recovered from the femurs of transplanted animals and assayed in secondary cultures for the number of clonogenic CFU-GM (left panel) and, after transplant into secondarily irradiated animals, for the number of day-12 CFU-S (right panel). Data are pooled from three independent experiments using 10 mice each/tested cells (n=30). * p<0.0001. No HSPC cells were recovered from the marrow cavities of control animals (irradiated, not transplanted) Panel B: C3a primes homing of human CB and BM CD34^+ cells into the BM of lethally irradiated NOD/SCID mice. […] Data are pooled from independent experiments preformed on three different CB- and three different BM samples using 2-4 mice/tested cell sample. p<0.0001.
# As final proof of our hypothesis and to test whether the primed cells home better to BM, we primed murine BM-derived Sca-1^+ and human BM- and UCB-derived CD34^+ cells with C3a before their transplantation into lethally irradiated mice. Sixteen hrs after transplantation, recipient mice were sacrificed and cells were recovered from their marrow cavities. […]
# UCB CD34+ cells = test: Transwell chemotaxis of UCB CD34+ cells to SDF-1 (priming); assay type: cell-based, human
# Protocol: FIG. 11A-B—Effect of SLP and its components on chemotaxis of CD34^+ cells. Panel A: Chemotaxis of BM CD34^+ cells towards medium alone (control), SDF-1 low (10 ng/mL) alone, SLP (combined SLP from three patients), SDF-1 low+SLP, and SDF-1 high (300 ng/mL). Data are pooled from quadruplicate samples from three independent experiments. *p<0.00001. Panel B: Chemotaxis of UCB CD34^+ cells to medium alone (control), SDF-1 low (10 ng/mL) alone and SDF-1 low (10 ng/mL)+uPAR (1 μg/mL) or +ICAM (1 μg/mL) or +VCAM (1 μg/mL) or +FN (2 μg/mL), or +FG (4 μg/mL) or +C3a (1 μg/mL). Data are pooled from quadruplicate samples from three independent experiments. * p<0.00001.
# An increased migration of UCB-derived CD34^+ cells, as compared to BM and mPB CD34^+ cells was reported in transwell migration assays was previously reported. However, we noticed large inter-individual differences in the in vitro migratory ability of UCB CD34^+ cells, ranging from 1.1% to 14.3% for spontaneous migration and 3.1% to 62.3% for SDF-1-induced (300 ng/mL) migration. The lower migratory capacity in vitro of UCB-derived CD34^+ cells was not due to lower expression of CXCR4, but likely reflects the decreased migratory behavior of these cells. […] Based on this, we postulate that UCB HSPC responsiveness to an SDF-1 gradient varies with each collected UCB unit and that, in cases when responsiveness is low, UCB HSPCs should be identified and primed before infusion.
# Moreover, as SLP contains several components that potentially could prime the responses of CD34^+ cells, (Example 2, FIG. 11, panel B) the most important being PMV and activated complement proteins such as anaphylatoxin C3a, soluble VCAM-1, soluble ICAM-1, uPAR, FG, and FN, we evaluated whether these factors could induce the chemotaxis of HSPCs when used alone. […] We also examined whether FG, FN, soluble VCAM-1, soluble ICAM-1, uPAR, and C3a prime HSPCs in their responses to SDF-1. […] To determine whether this also affects UCB CD34^+ clonogenic progenitors, UCB CD34^+ cells were collected from the lower chambers after the chemotaxis assay and plated in methylcellulose cultures. […] Moreover, a similar effect for the established hematopoietic cell lines Molt 4, Nalm-6, and THP-1 was also found (data not shown).
substance,measurement,setting,value
C3a: 77 amino acid residue protein derived from the human complement C3a precursor; SEQ ID NO:1,"marrow homing, number of CFU-GM harvested per femur","[1]; 24 h after injection of NOD/SCID mice, C3a primed UCB CD34+ HSC",enhanced marrow homing
same,homing of human CFU-GM into BM,"[1]; CB and BM CD34+ cells preincubated with C3a 30 min, 16 hrs after transplantation",home more efficiently; also recorded: homed better; also recorded: primes homing
same,SDF-1-mediated transwell cell migration of C3a primed UCB CD34+ HSC,UCB CD34+ cells,enhanced
same,responsiveness of UCB cells to SDF-1 gradient,UCB CD34+ cells; UCB-derived CD34+ cells exposed/primed,significantly increase the responsiveness
same,chemotactic response of UCB CD34+ cells to SDF-1,"UCB CD34+ cells; added to lower chambers with SDF-1 10 ng/mL, uPAR, ICAM, VCAM, C3a 1 μg/mL, FN 2 μg/mL, FG 4 μg/mL",increased the chemotactic response
same,induction of chemotaxis of HSPCs when used alone,UCB CD34+ cells; without SDF-1,no evidence that they did
